Consider 32 compounds from patent US20130289083A1, “IDO Inhibitors” (priority 2007, published 2013).

Like-named read-outs stand apart in the source and are kept apart here.

The term EC50 denotes the concentration that produces a half-maximal response. For orientation: IC50 means the midpoint of a concentration-inhibition curve.

For one test, the target named is human IDO (Homo sapiens, UniProt P14902). As to the kind of experiment: Cell based IDO/kynurenine assay in IDO-293-T-Rex cells. The conditions noted are these: kynurenine production, read-out: hIDO EC50. The method, then: 293-T-REx™ cells (Invitrogen) constitutively express a tet operator binding repressor protein and are maintained in DMEM, 10% FBS, 1× Penicillin+Streptomycin, 2 mM L-glutamine, 5 μg/mL blasticidin at 37° C. with a 5% CO2 in air atmosphere and typically split prior to confluency. Cells were passed by splitting the culture 1/10—by removing media by aspiration, washing 1× with PBS, incubating with 0.25% trypsin/EDTA until the cells detach, disbursing the cells in fresh growth media, and plating at 1/10 dilutions in fresh growth media. For long term cryopreservation, cells are detached from the plate as described above, collected by centrifugation, resuspended in freeze medium (growth medium, 10% DMSO), stored in 1.8 mL cyropreservation vials (˜2−5×10^6 cells per vial), in liquid nitrogen vapor storage tanks.
IDOl-expressing 293-T-Rex™ cell lines were generated by stable transfection of plasmid pcDNA-tetO-IDO expressing human IDO or murine IDO under the control of the doxycycline-inducible CMV-tet promoter. Transfected cells were selected in DBZ medium (DMEM, 10% FBS, 1× Penicillin+Streptomycin, 2 mM L-glutamine, 5 μg/mL blasticidin and 25 μg/ml Zeocin) at 37° C. with a 5% CO2 in air atmosphere. Individual clones were isolated by limiting dilution cloning from these populations.
[…]. The cells incubated in Neutral medium serve as negative control of the assay. The cells incubated in Induction medium and without inhibitor serve as the positive control of the assay. The incubation is carried out for 16 h at 37° C. in a cell culture incubator. 200 μL of medium are transferred to U-bottom polypropylene 96-well plates containing 25 μL of 30% TCA, incubated 30 minutes at 60° C. and centrifuged at 3400 g for 5 minutes. 150 μL of the clear supernatant is transferred to a polystyrene 96-well plate containing 50 μL of 4% (w/v) of p-dimethylaminobenzaldehyde in acetic acid, incubated for 10 min. Kynurenine concentration is determined by measuring the absorbance at 480 nm.
The conditions of the assay were as described in the examples.

The next test concerns the target T1, murine IDO (Mus musculus, UniProt P28776).
T1 construct: expressed in transfected cells; host or cells: 293-T-REx cells (Invitrogen), doxycycline-inducible CMV-tet promoter
Nature of the test: Cell based IDO/kynurenine assay in 293-T-Rex cells expressing murine IDO. The conditions noted are these: cells expressing murine IDO, read-out: mIDO EC50. How it is done: Transfected cells were selected in DBZ medium (DMEM, 10% FBS, 1× Penicillin+Streptomycin, 2 mM L-glutamine, 5 μg/mL blasticidin and 25 μg/ml Zeocin) at 37° C. with a 5% CO2 in air atmosphere. Individual clones were isolated by limiting dilution cloning from these populations.
The cells incubated in Neutral medium serve as negative control of the assay. The cells incubated in Induction medium and without inhibitor serve as the positive control of the assay. The incubation is carried out for 16 h at 37° C. in a cell culture incubator. 200 μL of medium are transferred to U-bottom polypropylene 96-well plates containing 25 μL of 30% TCA, incubated 30 minutes at 60° C. and centrifuged at 3400 g for 5 minutes. 150 μL of the clear supernatant is transferred to a polystyrene 96-well plate containing 50 μL of 4% (w/v) of p-dimethylaminobenzaldehyde in acetic acid, incubated for 10 min. Kynurenine concentration is determined by measuring the absorbance at 480 nm.

Test [1] concerns the target purified human IDO protein (Homo sapiens, UniProt P14902). As to the kind of experiment: Enzymatic IDO assay (kynurenine production, absorbance 480 nm). The conditions noted are these: enzymatic activity.
[2] abbreviates: Table 15, 293T cells expressing human IDO.
Setting [3] is: hIDO IC50, Table 15, recombinant human IDO.
Setting [4] is: 293T cell line stably expressing human IDO, values reported in ranges.
The mark [5] stands for this setting: hIDO IC50, recombinant human IDO, values reported in ranges.
[6] abbreviates: read-out: hIDO IC50, recombinant human IDO, values reported in ranges.

Sequence of purified human IDO protein (P14902 whole entry P110S/E119G): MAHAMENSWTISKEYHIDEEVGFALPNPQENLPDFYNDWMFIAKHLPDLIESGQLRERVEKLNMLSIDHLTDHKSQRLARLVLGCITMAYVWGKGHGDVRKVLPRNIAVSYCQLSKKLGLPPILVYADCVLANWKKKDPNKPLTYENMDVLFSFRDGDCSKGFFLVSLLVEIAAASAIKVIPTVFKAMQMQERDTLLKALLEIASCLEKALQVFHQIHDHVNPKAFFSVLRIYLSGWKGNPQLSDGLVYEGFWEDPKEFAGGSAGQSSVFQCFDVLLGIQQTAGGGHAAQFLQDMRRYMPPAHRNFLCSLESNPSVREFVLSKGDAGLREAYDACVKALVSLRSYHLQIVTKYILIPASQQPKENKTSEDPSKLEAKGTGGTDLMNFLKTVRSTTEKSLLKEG
Sequence of human IDO (P14902 whole entry): as the sequence (P14902 whole entry P110S/E119G) above, with S110P, G119E counted along it
T1 sequence (P28776 whole entry): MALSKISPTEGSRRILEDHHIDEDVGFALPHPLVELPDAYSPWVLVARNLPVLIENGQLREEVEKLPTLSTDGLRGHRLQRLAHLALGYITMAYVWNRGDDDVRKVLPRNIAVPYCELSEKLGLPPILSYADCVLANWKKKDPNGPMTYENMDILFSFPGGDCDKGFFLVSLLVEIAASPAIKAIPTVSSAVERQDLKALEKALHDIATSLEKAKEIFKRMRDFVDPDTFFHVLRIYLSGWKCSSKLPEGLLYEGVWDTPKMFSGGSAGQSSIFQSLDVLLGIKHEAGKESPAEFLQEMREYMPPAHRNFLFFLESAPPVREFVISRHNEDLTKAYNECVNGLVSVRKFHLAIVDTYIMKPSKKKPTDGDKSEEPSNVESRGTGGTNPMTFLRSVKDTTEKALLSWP

As to `NOCc1ccc(F)cc1Cl` [compound 1676, O-(2-chloro-4-fluorobenzyl)hydroxylamine], the EC50 on human IDO (setting [2]) is under 10 µM; at murine IDO (Table 15), 10 to 100 µM. Besides, the IC50 in test [1] (setting [3]) is under 10 µM.

Regarding `NOCc1ccccc1[N+](=O)[O-]` [compound 811, O-(2-nitrobenzyl)hydroxylamine], the EC50 at human IDO (Table 16, 293T cells expressing human IDO) was under 10 µM; at murine IDO (Table 16), 10 to 100 µM. In test [1] (hIDO IC50, Table 16, recombinant human IDO), the IC50 is under 10 µM.

Regarding `NOCC1CCc2ccccc2O1` (centres unmarked) [compound 1768, O-(chroman-2-ylmethyl)hydroxylamine], the EC50 at human IDO (setting [2]) and on murine IDO (Table 15) was under 10 µM each time. For the same compound, the IC50 in test [1] (setting [3]) was under 10 µM.

For the compound `NOCc1ccc2c(c1)OCO2` [compound 1744, O-(benzo[d][1,3]dioxol-5-ylmethyl)hydroxylamine], the figures for the EC50 on human IDO (setting [2]) and on murine IDO (Table 15) were under 10 µM and 10 to 100 µM, respectively. Also, the IC50 in test [1] (setting [3]) is under 10 µM.

As to `Cn1[nH]c(=O)c(=O)nc1SCc1ccc2ccccc2c1` [compound 682, 2-Methyl-3-(naphthalen-2-ylmethylthio)-1,2-dihydro-1,2,4-triazine-5,6-dione], the half-maximal effective concentration (EC50) on human IDO (setting [4]) lay within 100 to 1000 µM. Also, in test [1] (setting [5]), the IC50 lay in the range of 100 to 1000 µM.

As for `O=C(Cc1csc(=S)[nH]1)NCc1ccc2ccccc2c1` [compound 701, N-(Naphthalen-2-ylmethyl)-2-(2-thioxo-2,3-dihydrothiazol-4-yl)acetamide], the EC50 at human IDO (setting [4]) lay within 100 to 1000 µM. Also, the IC50 in test [1] (setting [5]) was in the range of 100 to 1000 µM.

For the compound `S=C(NCCc1c[nH]c2ccccc12)SCCc1ccc2c(c1)OCCO2` [compound 53, 2-(2,3-Dihydrobenzo[b][1,4]dioxin-6-yl)ethyl 2-(1H-indol-3-yl)ethyl-carbamodithioate], the EC50 at human IDO (setting [4]) is 20 to 100 µM. The IC50 in test [1] (setting [5]) was in the range of 100 to 1000 µM.

As for `O=C(Cc1ccc2ccccc2c1)NO` [compound 827, N-hydroxy-2-(naphthalen-2-yl)acetamide], the EC50 on human IDO (setting [4]) was 20 to 100 µM. The IC50 in test [1] (setting [5]) was 100 to 1000 µM.

For the compound `NC(CSC(=S)NCc1ccccc1)C(=O)O` (centres unmarked) [compound 138, 2-amino-3-(benzylcarbamothioylthio)-propanoic acid], the EC50 on human IDO (setting [4]) fell in the range of 20 to 100 µM. The IC50 in test [1] (setting [5]) is 100 to 1000 µM.

Consider `Nc1ccccc1NC(=O)CCc1csc2ccccc12` [compound 739, N-(2-aminophenyl)-3-(benzo[b]thiophen-3-yl)propanamide], for which the EC50 at human IDO (setting [4]) is 100 to 1000 µM. Also, the IC50 in test [1] (setting [5]) was in the range of 100 to 1000 µM.

With `S=C(NCCc1c[nH]c2ccccc12)SCc1noc2ccccc12` [compound 52, Benzo[d]isoxazol-3-ylmethyl 2-(1H-indol-3-yl)ethylcarbamodithioate], at human IDO (setting [4]), the EC50 fell in the range of 20 to 100 µM. For the same compound, in test [1] (setting [5]), the IC50 lay in the range of 20 to 100 µM.

For `Fc1ccc(CCSC(=S)NCCc2c[nH]c3ccccc23)cc1` [compound 3, 4-Fluorophenethyl 2-(1H-indol-3-yl)ethylcarbamodithioate], the EC50 on human IDO (setting [4]) fell in the range of 100 to 1000 µM. Moreover, in test [1] (setting [5]), the IC50 fell in the range of 100 to 1000 µM.

With `O=C1CSC(=S)N1Cc1ccc2ccccc2c1` [compound 830, 3-(Naphthalen-2-ylmethyl)-2-thioxothiazolidin-4-one], the EC50 at human IDO (setting [4]) was in the range of 20 to 100 µM. The IC50 in test [1] (setting [5]) fell in the range of 20 to 100 µM.

`CSC(=S)NCCc1c[nH]c2cc(F)c(F)c(F)c12` [compound 45]: the EC50 on human IDO (setting [4]) was 100 to 1000 µM. The concentration for half-maximal inhibition (IC50) in test [1] (setting [6]) lay in the range of 100 to 1000 µM.

Consider `Nc1ccc2[nH]cc(C(=O)O)c2c1` [compound 352, 5-amino-1H-indole-3-carboxylic acid], for which, on human IDO (setting [4]), the EC50 is 1000 to 10000 µM. Besides, the IC50 in test [1] (setting [5]) lay in the range of 100 to 1000 µM.

As to `O=C(O)Cc1cccc2sccc12` [compound 307, 2-(benzo[b]thiophen-4-yl)acetic acid], the EC50 at human IDO (setting [4]) was in the range of 1000 to 10000 µM. Further, in test [1] (setting [5]), the IC50 is under 20 µM.

`CC(=O)C1C2CCC(C2)C1(C)C` (centres unmarked) [compound 289, 1-(3,3-dimethylbicyclo[2.2.1]heptan-2-yl)ethanone]: the EC50 at human IDO (setting [4]) lay within 1000 to 10000 µM. In test [1] (setting [5]), the IC50 lay in the range of 100 to 1000 µM.

As to `CN(C)c1ccc(/C=C2\CSC(=S)NC2=O)cc1` [compound 150, (Z)-5-(4-(dimethylamino)benzylidene)-2-thioxo-1,3-thiazinan-4-one], on human IDO (setting [4]), the EC50 was in the range of 100 to 1000 µM. The IC50 in test [1] (setting [5]) was in the range of 100 to 1000 µM.

Consider `CSC(=S)NCCc1c[nH]c2ccc(Cl)cc12` [compound 32], for which, on human IDO (setting [4]), the EC50 is 20 to 100 µM. Further, in test [1] (setting [6]), the IC50 lay within 100 to 1000 µM.

With `CC1=C(CN2C(=O)c3ccccc3C2=O)C(=O)c2ccccc2C1=O` [compound 464, 2-((3-methyl-1,4-dioxo-1,4-dihydronaphthalen-2-yl)methyl)isoindoline-3-dione], on human IDO (setting [4]), the EC50 lay within 1000 to 10000 µM. Further, the 50% inhibitory concentration (IC50) in test [1] (setting [5]) lay within 20 to 100 µM.

As to `NC(CSC(=S)NCCCc1ccccc1)C(=O)O` (centres unmarked) [compound 140, 2-amino-3-(3-phenylpropyl-carbamo-thioylthio)propanoic acid], at human IDO (setting [4]), the EC50 fell in the range of 20 to 100 µM. Moreover, the IC50 in test [1] (setting [5]) lay within 100 to 1000 µM.

As to `Cc1ccc(SC(=S)Nc2ccccc2)cc1` [compound 142, p-tolyl phenylcarbamodithioate], the EC50 on human IDO (setting [4]) was in the range of 100 to 1000 µM. Also, the IC50 in test [1] (setting [5]) was under 20 µM.

For `Cc1cc2ccccc2cc1CCSC(=S)NCCc1c[nH]c2ccccc12` [compound 47, 2-(3-methylnaphthalen-2-yl)ethyl 2-(1H-indol-3-yl)ethylcarbamodithioate], the EC50 on human IDO (setting [4]) was 20 to 100 µM. Further, the IC50 in test [1] (setting [5]) lay within 100 to 1000 µM.

Regarding `NOC(COCc1ccccc1)c1ccccc1` (centres unmarked) [compound 1933, O-(2-(benzyloxy)-1-phenylethyl)hydroxylamine], the EC50 at human IDO (setting [2]) is under 10 µM. The IC50 in test [1] (setting [3]) is under 10 µM.

On to `Nc1ccc2[nH]cc(CCC(=O)O)c2c1` [compound 325, 3-(5-amino-1H-indol-3-yl)propanoic acid], for which, at human IDO (setting [4]), the EC50 is 1000 to 10000 µM. For the same compound, the IC50 in test [1] (setting [5]) was 100 to 1000 µM.

Take `Cc1ccc(CCSC(=S)NCCc2c[nH]c3ccccc23)cc1` [compound 9, 4-Methylphenethyl 2-(1H-indol-3-yl)ethylcarbamodithioate]: on human IDO (setting [4]), the EC50 was in the range of 20 to 100 µM. In test [1] (setting [5]), the IC50 lay within 100 to 1000 µM.

As for `S=C(NCCc1c[nH]c2ccccc12)SCc1cc2c(cc1Br)OCO2` [compound 65, (6-Bromobenzo[d][1,3]dioxol-5-yl)methyl 2-(1H-indol-3-yl)ethylcarbamodithioate], at human IDO (setting [4]), the EC50 was 20 to 100 µM. The IC50 in test [1] (setting [5]) was in the range of 20 to 100 µM.

For the compound `S=C(NCCc1c[nH]c2ccccc12)SCCc1cccc(Br)c1` [compound 7, 3-Bromophenethyl 2-(1H-indol-3-yl)ethylcarbamodithioate], the EC50 at human IDO (setting [4]) fell in the range of 100 to 1000 µM. In addition, the IC50 in test [1] (setting [5]) fell in the range of 100 to 1000 µM.

Regarding `Cc1c(O)c(=O)ccn1CCc1c[nH]c2ccccc12` [compound 552, 1-(2-(1H-indol-3-yl)ethyl)-3-hydroxy-2-methylpyridin-4(1H)-one], the EC50 on human IDO (setting [4]) lay within 20 to 100 µM. For the same compound, the IC50 in test [1] (setting [5]) fell in the range of 100 to 1000 µM.

For the compound `Cc1ccc2cc(CSC(=S)NCCc3c[nH]c4ccccc34)ccc2n1` [compound 38, (2-Methylquinolin-6-yl)methyl 2-(1H-indol-3-yl)ethylcarbamodithioate], the EC50 at human IDO (setting [4]) lay within 20 to 100 µM. In test [1] (setting [5]), the IC50 lay in the range of 100 to 1000 µM.

In the case of `S=C(NCCC1CCc2ccccc2O1)SCc1ccc2ccccc2c1` (centres unmarked) [compound 63, naphthalen-2-ylmethyl 2-(chroman-2-yl)ethylcarbamodithioate], the EC50 at human IDO (setting [4]) lay in the range of 20 to 100 µM. In addition, the IC50 in test [1] (setting [5]) lay within 20 to 100 µM.

With `CC(=O)N1C(=O)/C(=C2/SC(=S)NC2=O)c2ccccc21` [compound 149], on human IDO (setting [4]), the EC50 was in the range of 20 to 100 µM. For the same compound, the IC50 in test [1] (setting [5]) lay in the range of 100 to 1000 µM.
